Results from US10738015B2, “1,3-diaza-spiro-[3.4]-octane derivatives” (priority 2017, dated 2020).
Like-named read-outs stand apart in the source and are kept apart here.

What was measured:
[1] = molecular target: human nociceptin/orphanin FQ peptide (hNOP) receptor (Homo sapiens (Human), UniProt P41146); experiment: hNOP receptor binding assay (SPA)
Protocol: Human Nociceptin/Orphanin FQ Peptide (hNOP) Receptor Binding Assay
The hNOP receptor binding assay was performed as homogeneous SPA-assay (scintillation proximity assay) using the assay buffer 50 mM TRIS-HCl, 10 mM MgCl2, 1 mM EDTA (pH 7.4). The final assay volume (250 μl/well) included 0.5 nM of [leucyl-^3H]nociceptin as ligand (PerkinElmer Life Sciences. Inc. Boston, Mass. USA) and either test compound in dilution series or 1 μM unlabelled nociceptin for determination of unspecific binding. The test compound was diluted with 25% DMSO in H2O to yield a final 0.5% DMSO concentration which also served as a respective vehicle control. The assay was started by adding wheat germ agglutinin coated SPA beads (GE Healthcare UK Ltd. Buckinghamshire. UK) which had been preloaded with hNOP receptor membranes (PerkinElmer Life Sciences. Inc. Boston, Mass. USA). After incubation for 60 minutes at RT and centrifugation for 20 minutes at 500 rpm the signal rate was measured by means of a 1450 Microbeta Trilux ß-counter (PerkinElmer Life Sciences/Wallac. Turku. Finland). Half-maximal inhibitory concentration (IC50) values reflecting 50% displacement of [^3H]nociceptin-specific receptor binding were calculated by nonlinear regression analysis and Ki values were calculated by using the Cheng-Prusoff equation. (Cheng and Prusoff. 1973).

[2] = molecular target: human mu-opioid peptide (hMOP) receptor (Homo sapiens (Human), UniProt P35372); experiment: hMOP receptor binding assay (SPA)
Protocol: Human Mu-Opioidpeptide (hMOP) Receptor Binding Assay
The hMOP receptor binding assay was performed as homogeneous SPA-assay (scintillation proximity assay) using the assay buffer 50 mM TRIS-HCl (pH 7.4) supplemented with 0.052 mg/ml bovine serum albumin (Sigma-Aldrich Co. St. Louis, Mo.). […] The assay was started by adding wheat germ agglutinin coated SPA beads (GE Healthcare UK Ltd. Buckinghamshire. UK) which had been preloaded with hMOP receptor membranes (PerkinElmer Life Sciences. Inc. Boston, Mass. USA).

[3] = Ki, displacement of [3H]naloxone, hMOP receptor membranes, read-out: hMOP Ki [nM] or % inhibition at 1 μM
[4] = Ki, displacement of [leucyl-3H]nociceptin, hNOP receptor membranes, read-out: hNOP Ki [nM] or % inhibition at 1 μM
[5] = read-out: hMOP Ki [nM] or % inhibition at 1 μM

Chain of human mu-opioid peptide (hMOP) receptor (P35372 whole entry): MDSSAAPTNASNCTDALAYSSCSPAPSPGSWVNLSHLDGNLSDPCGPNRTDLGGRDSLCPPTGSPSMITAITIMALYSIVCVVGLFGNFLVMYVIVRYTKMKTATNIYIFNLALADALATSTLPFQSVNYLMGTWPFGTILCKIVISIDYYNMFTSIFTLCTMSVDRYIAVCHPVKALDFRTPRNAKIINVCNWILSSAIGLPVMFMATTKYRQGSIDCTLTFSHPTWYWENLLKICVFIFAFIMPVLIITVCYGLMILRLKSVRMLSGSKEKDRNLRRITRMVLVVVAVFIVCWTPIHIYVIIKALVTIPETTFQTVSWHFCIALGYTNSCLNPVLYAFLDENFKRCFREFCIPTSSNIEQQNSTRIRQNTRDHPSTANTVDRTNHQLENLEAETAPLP

SMILES | Ki [1] [nM] | Ki [2, 3] [nM] | Ki [1, 4] [nM] | Ki [2] [nM] | inhibition at 1 µM [2, 5] [%]
Cc1cc(C#N)ncc1N1C[C@]2(C[C@](c3cccc(F)c3)(N(C)C)C2)N(CC2CC2)C1=O [SC-15, cis-5-(5-(cyclopropylmethyl)-2-(dimethylamino)-2-(3-fluorophenyl)-6-oxo-5,7-diazaspiro[3.4]octan-7-yl)-4-methylpicolinonitrile] | 13 | 1330 | – | – | –
Cc1cc(C2CC2)ncc1N1C[C@]2(C[C@](c3ccccc3)(N(C)C)C2)N(CC2CC2)C1=O [SC-35, Cis-7-(6-cyclopropyl-4-methylpyridin-3-yl)-5-(cyclopropylmethyl)-2-(dimethylamino)-2-phenyl-5,7-diazaspiro[3.4]octan-6-one] | – | 185 | 19 | – | –
CN(C)[C@]1(c2cccc(F)c2)C[C@@]2(CN(CC3(O)CCC3)C(=O)N2CC2CC2)C1 [SC-42, Cis-5-(cyclopropylmethyl)-2-(dimethylamino)-2-(3-fluorophenyl)-7-[(1-hydroxycyclobutyl)methyl]-5,7-diazaspiro[3.4]octan-6-one] | – | 125 | 21 | – | –
CN(C)[C@]1(c2cccc(F)c2)C[C@@]2(CN(CCC3COC3)C(=O)N2CC2CC2)C1 [SC-47, Cis-5-(cyclopropylmethyl)-2-(dimethylamino)-2-(3-fluorophenyl)-7-[2-(oxetan-3-yl)ethyl]-5,7-diazaspiro[3.4]octan-6-one] | – | 44 | 9 | – | –
Cc1cc(N2CCOCC2)ncc1N1C[C@]2(C[C@](c3ccccc3)(N(C)C)C2)NC1=O [SC-19, Cis-2-(dimethylamino)-7-(4-methyl-6-morpholinopyridin-3-yl)-2-phenyl-5,7-diazaspiro[3.4]octan-6-one] | – | 5890 | 1810 | – | –
CN(C)[C@]1(c2ccccc2)C[C@@]2(CN(CC(=O)N3CCS(=O)(=O)CC3)C(=O)N2CC2CCC2)C1 [SC-6, Cis-5-(cyclobutylmethyl)-2-(dimethylamino)-7-(2-(1,1-dioxidothiomorpholino)-2-oxoethyl)-2-phenyl-5,7-diazaspiro[3.4]octan-6-one] | 1 | – | – | – | –
CN(C)[C@]1(c2ccccc2)C[C@]2(CN(CC(N)=O)C(=O)N2CC2CCC2)C1 [SC-9, Trans-2-(5-(cyclobutylmethyl)-2-(dimethylamino)-6-oxo-2-phenyl-5,7-diazaspiro[3.4]octan-7-yl)acetamide] | – | – | 380 | 48 | –
CN(C)[C@]1(c2cccc(F)c2)C[C@@]2(CN(CC3(F)COC3)C(=O)N2CC2CC2)C1 [SC-33, Cis-5-(cyclopropylmethyl)-2-(dimethylamino)-7-((3-fluorooxetan-3-yl)methyl)-2-(3-fluorophenyl)-5,7-diazaspiro[3.4]octan-6-one] | – | 115 | 23 | – | –
Cc1cc(C2CC2)ncc1N1C[C@]2(C[C@](c3ccccc3)(N(C)C)C2)N(CC2(F)COC2)C1=O [SC-36, Cis-7-(6-cyclopropyl-4-methylpyridin-3-yl)-2-(dimethylamino)-5-((3-fluorooxetan-3-yl)methyl)-2-phenyl-5,7-diazaspiro[3.4]octan-6-one] | – | 330 | 10 | – | –
Cc1cc(N2CCC2)ncc1N1C[C@]2(C[C@](c3ccccc3)(N(C)C)C2)NC1=O [SC-13, cis-7-(6-(azetidin-1-yl)-4-methylpyridin-3-yl)-2-(dimethylamino)-2-phenyl-5,7-diazaspiro[3.4]octan-6-one] | – | – | 860 | – | 18
COc1nc(C#N)ncc1N1C[C@]2(C[C@@](c3ccccc3)(N(C)C)C2)N(CC2CCC2)C1=O [SC-11, trans-5-(5-(cyclobutylmethyl)-2-(dimethylamino)-6-oxo-2-phenyl-5,7-diazaspiro[3.4]octan-7-yl)-4-methoxypyrimidine-2-carbonitrile] | – | 3 | 99 | – | –
CN(C)[C@]1(c2cccc(F)c2)C[C@@]2(CN(c3ccc(OC(F)(F)F)cn3)C(=O)N2CC2(O)CCC2)C1 [SC-27, Cis-2-(dimethylamino)-2-(3-fluorophenyl)-5-((1-hydroxycyclobutyl)methyl)-7-(5-(trifluoromethoxy)pyridin-2-yl)-5,7-diazaspiro[3.4]octan-6-one] | – | 335 | 12 | – | –
CN(C)[C@]1(c2cccc(F)c2)C[C@@]2(CN(Cc3ccc(N4CCOCC4)cc3)C(=O)N2)C1 [SC-41, cis-2-(dimethylamino)-2-(3-fluorophenyl)-7-(4-morpholinobenzyl)-5,7-diazaspiro[3.4]octan-6-one] | 21 | 465 | – | – | –
Cc1nc(N2CCOCC2)ncc1N1C[C@]2(C[C@](c3ccccc3)(N(C)C)C2)NC1=O [SC-12, cis-2-(dimethylamino)-7-(4-methyl-2-morpholinopyrimidin-5-yl)-2-phenyl-5,7-diazaspiro[3.4]octan-6-one] | – | – | 630 | – | 13
CN(C)[C@]1(c2ccccc2)C[C@@]2(CN(c3ccc(OC(F)(F)F)cn3)C(=O)N2CC2CC2)C1 [SC-32, Cis-5-(cyclopropylmethyl)-2-(dimethylamino)-2-phenyl-7-(5-(trifluoromethoxy)pyridin-2-yl)-5,7-diazaspiro[3.4]octan-6-one] | – | 100 | 36 | – | –
CN(C)[C@]1(c2cccc(F)c2)C[C@@]2(CN(CCS(C)(=O)=O)C(=O)N2CC2CC2)C1 [SC-31, cis-5-(cyclopropylmethyl)-2-(dimethylamino)-2-(3-fluorophenyl)-7-(2-(methylsulfonyl)ethyl)-5,7-diazaspiro[3.4]octan-6-one] | 15 | 150 | – | – | –
CN(C)[C@]1(c2cccc(F)c2)C[C@@]2(CN(c3ccc(OC(F)(F)F)cn3)C(=O)N2CC2(F)CC2)C1 [SC-26, Cis-2-(dimethylamino)-5-((1-fluorocyclopropyl)methyl)-2-(3-fluorophenyl)-7-(5-(trifluoromethoxy)pyridin-2-yl)-5,7-diazaspiro[3.4]octan-6-one] | – | 1020 | 91 | – | –
Cc1cc(C(F)F)ncc1N1C[C@]2(C[C@](c3cccc(F)c3)(N(C)C)C2)N(CC2CC2)C1=O [SC-24, Cis-5-(cyclopropylmethyl)-7-(6-(difluoromethyl)-4-methylpyridin-3-yl)-2-(dimethylamino)-2-(3-fluorophenyl)-5,7-diazaspiro[3.4]octan-6-one] | – | 1180 | 23 | – | –
CN(C)[C@]1(c2ccccc2)C[C@]2(CN(CC(N)=O)C(=O)N2CC2CCC2)C1 [SC-8, cis-2-(5-(cyclobutylmethyl)-2-(dimethylamino)-6-oxo-2-phenyl-5,7-diazaspiro[3.4]octan-7-yl)acetamide] | – | 100 | 3 | – | –
Cc1cc(C(C)(C)O)ccc1N1C[C@]2(C[C@](c3ccccc3)(N(C)C)C2)NC1=O [SC-21, Cis-2-(dimethylamino)-7-(4-(2-hydroxypropan-2-yl)-2-methylphenyl)-2-phenyl-5,7-diazaspiro[3.4]octan-6-one] | – | 3580 | 775 | – | –
CN(C)[C@]1(c2ccccc2)C[C@@]2(CN(CCC#N)C(=O)N2CC2CC2)C1 [SC-45, Cis-3-[5-(cyclopropylmethyl)-2-(dimethylamino)-6-oxo-2-phenyl-5,7-diazaspiro[3.4]octan-7-yl]propanenitrile] | – | 37 | 25 | – | –
COc1nc(C#N)ncc1N1C[C@]2(C[C@](c3ccccc3)(N(C)C)C2)N(CC2CCC2)C1=O [SC-10, cis-5-(5-(cyclobutylmethyl)-2-(dimethylamino)-6-oxo-2-phenyl-5,7-diazaspiro[3.4]octan-7-yl)-4-methoxypyrimidine-2-carbonitrile] | – | 157 | 2 | – | –
CN(C)[C@]1(c2ccccc2)C[C@@]2(CN(c3ccc(OC(F)(F)F)cn3)C(=O)N2CC2(F)COC2)C1 [SC-29, Cis-2-(dimethylamino)-5-((3-fluorooxetan-3-yl)methyl)-2-phenyl-7-(5-(trifluoromethoxy)pyridin-2-yl)-5,7-diazaspiro[3.4]octan-6-one] | – | 65 | 16 | – | –
COc1nc(C#N)ncc1N1C[C@]2(C[C@](c3ccccc3)(N(C)C)C2)NC1=O [SC-3, Cis-5-(2-(dimethylamino)-6-oxo-2-phenyl-5,7-diazaspiro[3.4]octan-7-yl)-4-methoxypyrimidine-2-carbonitrile] | 370 | – | – | – | –
CN(C)[C@]1(c2cccc(F)c2)C[C@@]2(CN(c3ccc(OC(F)(F)F)cn3)C(=O)N2CC2(F)COC2)C1 [SC-23, Cis- -2-(dimethylamino)-5-((3-fluorooxetan-3-yl)methyl)-2-(3-fluorophenyl)-7-(5-(trifluoromethoxy)pyridin-2-yl)-5,7-diazaspiro[3.4]octan-6-one] | – | 545 | 25 | – | –
CN(C)[C@]1(c2ccccc2)C[C@@]2(CN(CC(=O)N3CCS(=O)(=O)CC3)C(=O)N2)C1 [SC-2, cis-2-(dimethylamino)-7-(2-(1,1-dioxidothiomorpholino)-2-oxoethyl)-2-phenyl-5,7-diazaspiro[3.4]octan-6-one] | – | – | 850 | – | 12
